Assay results reported in BindingDB's records for patent US20230322715 (University of California, 2023).

Columns and labels:
Test in all cases: In Vitro Inhibition Assay Method
[1] = biological target: T1, YTH domain-containing family protein 2 (Homo sapiens, UniProt Q9Y5A9)
T1 sequence (Q9Y5A9 whole entry): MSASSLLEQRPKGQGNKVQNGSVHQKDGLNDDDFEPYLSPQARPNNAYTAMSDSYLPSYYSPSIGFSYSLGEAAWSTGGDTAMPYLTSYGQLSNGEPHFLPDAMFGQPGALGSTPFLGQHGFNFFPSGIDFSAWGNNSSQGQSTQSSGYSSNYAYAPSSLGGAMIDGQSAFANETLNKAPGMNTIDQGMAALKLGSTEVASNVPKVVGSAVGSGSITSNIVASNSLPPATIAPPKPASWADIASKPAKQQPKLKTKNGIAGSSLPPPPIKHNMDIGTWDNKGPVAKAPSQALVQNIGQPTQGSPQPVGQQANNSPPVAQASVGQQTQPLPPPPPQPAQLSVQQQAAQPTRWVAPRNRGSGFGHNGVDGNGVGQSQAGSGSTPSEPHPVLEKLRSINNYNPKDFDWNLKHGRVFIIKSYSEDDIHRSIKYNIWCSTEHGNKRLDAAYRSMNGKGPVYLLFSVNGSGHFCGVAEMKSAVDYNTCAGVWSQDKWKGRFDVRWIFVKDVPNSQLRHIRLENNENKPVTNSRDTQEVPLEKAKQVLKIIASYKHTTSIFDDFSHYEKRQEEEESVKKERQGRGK
Procedure: (§1) Inhibitors were added in concentrations ranging from 0.008-40 μM; all inhibitors were dissolved in DMSO and added to a final concentration of 0.2% DMSO. […] After incubation at room temperature for 2 hours, the plates were left at 4 C. overnight (16 hours) to allow DFHBI-1T to bind to A7-Broccoli RNA. […] Sigmoidal dose-response curves were fitted in GraphPad Prism 6.

[2] = biological target: T2, YTH domain-containing family protein 1 (Homo sapiens, UniProt Q9BYJ9)
T2 sequence (Q9BYJ9 whole entry): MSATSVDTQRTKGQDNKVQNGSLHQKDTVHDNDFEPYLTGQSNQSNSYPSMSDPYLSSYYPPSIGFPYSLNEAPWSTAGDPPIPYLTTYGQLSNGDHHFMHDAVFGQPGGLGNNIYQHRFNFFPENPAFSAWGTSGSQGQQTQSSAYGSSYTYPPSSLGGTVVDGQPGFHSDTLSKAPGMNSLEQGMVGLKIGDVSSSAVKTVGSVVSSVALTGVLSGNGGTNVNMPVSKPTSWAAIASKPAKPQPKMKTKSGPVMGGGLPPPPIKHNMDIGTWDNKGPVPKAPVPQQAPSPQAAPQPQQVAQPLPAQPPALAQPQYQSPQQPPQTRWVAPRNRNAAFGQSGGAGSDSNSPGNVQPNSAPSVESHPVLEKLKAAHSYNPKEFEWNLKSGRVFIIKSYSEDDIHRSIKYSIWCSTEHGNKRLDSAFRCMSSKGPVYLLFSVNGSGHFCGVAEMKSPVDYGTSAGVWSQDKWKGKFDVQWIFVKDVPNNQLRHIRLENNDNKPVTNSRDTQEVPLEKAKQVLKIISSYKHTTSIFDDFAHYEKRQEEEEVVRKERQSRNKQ
Procedure: as §1

[3] = biological target: Alpha-ketoglutarate-dependent dioxygenase FTO (Homo sapiens, UniProt Q9C0B1)
Procedure: as §1

RNA demethylase ALKBH5 = RNA demethylase ALKBH5 (Homo sapiens, UniProt Q6P6C2)
Procedure: as §1

Chain of Alpha-ketoglutarate-dependent dioxygenase FTO (Q9C0B1 whole entry): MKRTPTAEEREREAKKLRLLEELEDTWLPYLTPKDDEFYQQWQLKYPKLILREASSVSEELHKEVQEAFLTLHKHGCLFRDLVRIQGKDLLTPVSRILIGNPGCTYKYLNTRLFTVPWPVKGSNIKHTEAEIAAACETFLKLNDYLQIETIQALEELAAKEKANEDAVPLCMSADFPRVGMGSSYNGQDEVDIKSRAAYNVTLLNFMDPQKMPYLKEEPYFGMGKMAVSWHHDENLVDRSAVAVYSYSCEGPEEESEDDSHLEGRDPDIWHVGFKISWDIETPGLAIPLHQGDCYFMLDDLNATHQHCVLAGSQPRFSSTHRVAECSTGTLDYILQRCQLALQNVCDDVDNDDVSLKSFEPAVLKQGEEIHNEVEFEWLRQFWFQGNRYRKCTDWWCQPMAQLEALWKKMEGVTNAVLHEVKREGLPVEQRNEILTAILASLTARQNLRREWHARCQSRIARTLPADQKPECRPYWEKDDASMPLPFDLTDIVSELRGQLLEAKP
Chain of RNA demethylase ALKBH5 (Q6P6C2 whole entry): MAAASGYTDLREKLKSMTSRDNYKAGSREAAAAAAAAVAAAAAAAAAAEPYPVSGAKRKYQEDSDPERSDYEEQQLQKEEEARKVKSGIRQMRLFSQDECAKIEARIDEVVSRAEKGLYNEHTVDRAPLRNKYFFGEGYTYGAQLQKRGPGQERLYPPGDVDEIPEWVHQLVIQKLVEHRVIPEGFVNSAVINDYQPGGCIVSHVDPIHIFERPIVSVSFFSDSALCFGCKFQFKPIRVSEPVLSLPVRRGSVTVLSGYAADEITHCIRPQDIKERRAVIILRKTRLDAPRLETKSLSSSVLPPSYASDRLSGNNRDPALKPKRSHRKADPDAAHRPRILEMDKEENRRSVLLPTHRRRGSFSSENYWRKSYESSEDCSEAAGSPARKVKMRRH

Row | SMILES | Ki [1] [nM] | Ki [2] [nM] | IC50 [3] [nM] | IC50 (RNA demethylase ALKBH5) [nM]
1 | COc1cc(Nc2ccc(CNC3CC3)cn2)cc(OC)c1 [US20230322715, Compound TR-YTH-13] | 0.15 | 0.473 |  | 
2 | Cc1ccc(Nc2ccc(CN(C)C)cn2)cc1C [US20230322715, Compound TR-YTH-17] | 0.333 | 0.605 |  | 
3 | Fc1ccc(Nc2ccc(CNC3CC3)cn2)c(F)n1 [US20230322715, Compound TR-YTH-14] | 0.128 | 0.399 |  | 
4 | O=S(=O)(Nc1ccc(Cl)c(Cl)c1)c1ccc(OC(F)(F)F)cc1 [US20230322715, Compound TR-ALKBH5-33] |  |  | > 40000 | 2600
5 | O=C(C1CC1)N1CCN(S(=O)(=O)c2ccc(OC(F)(F)F)cc2)CC1 [US20230322715, Compound TR-ALKBH5-41] |  |  | > 40000 | 450
6 | CSc1ccccc1Nc1ccc(CNC2CC2)cn1 [US20230322715, Compound TR-YTH-11] | 5.59 | 13.4 |  | 
